In ChEMBL document CHEMBL4308841, “Synthesis, in vitro antiproliferative activity, and kinase inhibitory effects of pyrazole-containing diarylureas and diarylamides” (Eur J Med Chem, 2018):
pIC50: −log10 of the molar value.

Key:
[1] = system: LOX IMVI; assay: Growth inhibition of human LOXIMVI cells assessed as cell growth at 0.01 uM incubated for 48 hrs by sulforhodamine B assay relative to control; type: functional; conditions: read-out: Activity
[2] = system: KM12; assay: Growth inhibition of human KM12 cells assessed as cell growth at 0.1 uM incubated for 48 hrs by sulforhodamine B assay relative to control; type: functional; conditions: KM12, 48 h, read-out: Activity
[3] = system: BT-549; assay: Growth inhibition of human BT549 cells incubated for 48 hrs by sulforhodamine B assay; type: functional, cell-based; conditions: BT-549, 48 h
[4] = system: UACC-257; assay: Growth inhibition of human UACC257 cells incubated for 48 hrs by sulforhodamine B assay; type: functional, cell-based; conditions: UACC-257, 48 h
[5] = system: MDA-MB-231; assay: Growth inhibition of human MDA-MB-231 cells incubated for 48 hrs by sulforhodamine B assay; type: functional, cell-based; conditions: MDA-MB-231, 48 h
[6] = system: SK-MEL-2; assay: Growth inhibition of human SK-MEL-2 cells assessed as cell growth at 100 uM incubated for 48 hrs by sulforhodamine B assay relative to control; type: functional; conditions: SK-MEL-2, 48 h, read-out: Activity
[7] = system: HCT-116; assay: Growth inhibition of human HCT116 cells incubated for 48 hrs by sulforhodamine B assay; type: functional, cell-based; conditions: HCT-116, 48 h
[8] = system: HOP-62; assay: Growth inhibition of human HOP62 cells assessed as cell growth at 0.01 uM incubated for 48 hrs by sulforhodamine B assay relative to control; type: functional; conditions: HOP-62, 48 h, read-out: Activity
[9] = system: UO-31; assay: Growth inhibition of human UO31 cells incubated for 48 hrs by sulforhodamine B assay; type: functional, cell-based; conditions: UO-31, 48 h
[10] = system: SW-620; assay: Growth inhibition of human SW620 cells assessed as cell growth at 0.1 uM incubated for 48 hrs by sulforhodamine B assay relative to control; type: functional; conditions: SW-620, 48 h, read-out: Activity
[11] = system: COLO 205; assay: Growth inhibition of human COLO205 cells assessed as cell growth at 0.01 uM incubated for 48 hrs by sulforhodamine B assay relative to control; type: functional; conditions: COLO 205, 48 h, read-out: Activity
[12] = system: CCRF-CEM; assay: Growth inhibition of human CCRF-CEM cells assessed as cell growth at 1 uM incubated for 48 hrs by sulforhodamine B assay relative to control; type: functional; conditions: read-out: Activity
[13] = system: DU-145; assay: Growth inhibition of human DU145 cells assessed as cell growth at 0.01 uM incubated for 48 hrs by sulforhodamine B assay relative to control; type: functional; conditions: DU-145, 48 h, read-out: Activity
[14] = system: SF-539; assay: Growth inhibition of human SF539 cells assessed as cell growth at 0.01 uM incubated for 48 hrs by sulforhodamine B assay relative to control; type: functional; conditions: SF-539, 48 h, read-out: Activity
[15] = system: BT-549; assay: Growth inhibition of human BT549 cells assessed as cell growth at 1 uM incubated for 48 hrs by sulforhodamine B assay relative to control; type: functional; conditions: BT-549, 48 h, read-out: Activity
[16] = system: M14; assay: Growth inhibition of human M14 cells assessed as cell growth at 100 uM incubated for 48 hrs by sulforhodamine B assay relative to control; type: functional; conditions: M14, 48 h, read-out: Activity
[17] = system: RXF 393; assay: Growth inhibition of human RXF393 cells assessed as cell growth at 0.1 uM incubated for 48 hrs by sulforhodamine B assay relative to control; type: functional; conditions: RXF 393, 48 h, read-out: Activity
[18] = system: OVCAR-8; assay: Growth inhibition of human OVCAR8 cells incubated for 48 hrs by sulforhodamine B assay; type: functional, cell-based; conditions: OVCAR-8, 48 h
[19] = system: A549; assay: Growth inhibition of human A549/ATCC cells assessed as cell growth at 0.1 uM incubated for 48 hrs by sulforhodamine B assay relative to control; type: functional; conditions: A549, 48 h, read-out: Activity
[20] = system: MOLT-4; assay: Growth inhibition of human MOLT4 cells assessed as cell growth at 0.1 uM incubated for 48 hrs by sulforhodamine B assay relative to control; type: functional; conditions: MOLT-4, 48 h, read-out: Activity
[21] = system: HCC 2998; assay: Growth inhibition of human HCC2998 cells assessed as cell growth at 100 uM incubated for 48 hrs by sulforhodamine B assay relative to control; type: functional; conditions: HCC 2998, 48 h, read-out: Activity
[22] = system: SF-539; assay: Growth inhibition of human SF539 cells assessed as cell growth at 1 uM incubated for 48 hrs by sulforhodamine B assay relative to control; type: functional; conditions: SF-539, 48 h, read-out: Activity
[23] = system: OVCAR-3; assay: Growth inhibition of human OVCAR3 cells assessed as cell growth at 0.01 uM incubated for 48 hrs by sulforhodamine B assay relative to control; type: functional; conditions: OVCAR-3, 48 h, read-out: Activity
[24] = system: MCF7; assay: Growth inhibition of human MCF7 cells assessed as cell growth at 0.1 uM incubated for 48 hrs by sulforhodamine B assay relative to control; type: functional; conditions: MCF7, 48 h, read-out: Activity
[25] = system: NCI-H23; assay: Growth inhibition of human NCI-H23 cells assessed as cell growth at 0.1 uM incubated for 48 hrs by sulforhodamine B assay relative to control; type: functional; conditions: NCI-H23, 48 h, read-out: Activity
[26] = system: KM12; assay: Growth inhibition of human KM12 cells assessed as cell growth at 0.01 uM incubated for 48 hrs by sulforhodamine B assay relative to control; type: functional; conditions: KM12, 48 h, read-out: Activity
[27] = system: K562; assay: Growth inhibition of human K562 cells incubated for 48 hrs by sulforhodamine B assay; type: functional, cell-based; conditions: K562, 48 h
[28] = system: MDA-MB-468; assay: Growth inhibition of human MDA-MB-468 cells assessed as cell growth at 1 uM incubated for 48 hrs by sulforhodamine B assay relative to control; type: functional; conditions: MDA-MB-468, 48 h, read-out: Activity
[29] = read-out: LC50 (the source's name)
[30] = read-out: pLC50 (the source's name) (converted)

## COc1cc(Cl)cc(-c2nn(-c3cccc(NC(=O)Nc4cccc(C(F)(F)F)c4)c3)cc2-c2ccncc2)c1
[1]
  growth at 0.01 µM: 96%
[2]
  growth at 0.1 µM: 95%
[3]; read-out: GI50
  GI50: 2220 nM
[3]; [29]
  CC50: > 100 µM
[3]; read-out: TGI
  TGI: 55 µM
[3]; read-out: pGI50 (converted)
  GI50: 2240 nM
[3]; [30]
  CC50: > 100 µM
[3]; read-out: pTGI (converted)
  TGI: 5.62 µM
[4]; read-out: GI50
  GI50: 1750 nM
[4]; [29]
  CC50: 21.5 µM
[4]; read-out: TGI
  TGI: 45.5 µM
[4]; read-out: pGI50 (converted)
  GI50: 1740 nM
[4]; [30]
  CC50: 21.4 µM
[4]; read-out: pTGI (converted)
  TGI: 4.68 µM
[5]; read-out: GI50
  GI50: 1590 nM
[5]; [29]
  CC50: > 100 µM
[5]; read-out: TGI
  TGI: 49.1 µM
[5]; read-out: pGI50 (converted)
  GI50: 1580 nM
[5]; [30]
  CC50: > 100 µM
[5]; read-out: pTGI (converted)
  TGI: 4.9 µM
[6]
  growth at 100 µM: -68%
[7]
  pIC50: 6.12
[7]; read-out: GI50
  GI50: 754 nM
[7]; [29]
  CC50: 35.7 µM
[7]; read-out: TGI
  TGI: 75.1 µM
[7]; read-out: pGI50 (converted)
  GI50: 759 nM
[7]; [30]
  CC50: 38.9 µM
[7]; read-out: pTGI (converted)
  TGI: 7.59 µM
[8]
  growth at 0.01 µM: 96%
[9]
  pIC50: 5.99
[9]; read-out: GI50
  GI50: 1030 nM
[9]; [29]
  CC50: > 100 µM
[9]; read-out: TGI
  TGI: 77.5 µM
[9]; read-out: pGI50 (converted)
  GI50: 1020 nM
[9]; [30]
  CC50: > 100 µM
[9]; read-out: pTGI (converted)
  TGI: 7.76 µM
[10]
  growth at 0.1 µM: 100%
[11]
  growth at 0.01 µM: 100%
[12]
  growth at 1 µM: 56%
[13]
  growth at 0.01 µM: 101%
[14]
  growth at 0.01 µM: 100%
[15]
  growth at 1 µM: 93%
[16]
  growth at 100 µM: -78%
[17]
  growth at 0.1 µM: 92%
[18]; read-out: GI50
  GI50: 1120 nM
[18]; [29]
  CC50: > 100 µM
[18]; read-out: TGI
  TGI: 45.8 µM
[18]; read-out: pGI50 (converted)
  GI50: 1120 nM
[18]; [30]
  CC50: > 100 µM
[18]; read-out: pTGI (converted)
  TGI: 4.9 µM
[19]
  growth at 0.1 µM: 96%
[20]
  growth at 0.1 µM: 55%
[21]
  growth at 100 µM: -83%
[22]
  growth at 1 µM: 84%
[23]
  growth at 0.01 µM: 100%
[24]
  growth at 0.1 µM: 102%
[25]
  growth at 0.1 µM: 90%
[26]
  growth at 0.01 µM: 97%
[27]; read-out: GI50
  GI50: 823 nM
[27]; read-out: LC50
  LC50: > 100 µM
[27]; read-out: TGI
  TGI: 14.4 µM
[27]; read-out: pGI50 (converted)
  GI50: 832 nM
[27]; read-out: pLC50 (converted)
  LC50: > 100 µM
[27]; read-out: pTGI (converted)
  TGI: 14.5 µM
[28]
  growth at 1 µM: 51%

## O=C(Nc1cccc(-n2cc(-c3ccncc3)c(-c3cc(O)cc(Cl)c3)n2)c1)Nc1ccc(Cl)c(Cl)c1
[1]
  growth at 0.01 µM: 106%
[2]
  growth at 0.1 µM: 100%
[3]; read-out: GI50
  GI50: 2060 nM
[3]; [29]
  CC50: > 100 µM
[3]; read-out: TGI
  TGI: 52.2 µM
[3]; read-out: pGI50 (converted)
  GI50: 2040 nM
[3]; [30]
  CC50: > 100 µM
[3]; read-out: pTGI (converted)
  TGI: 5.25 µM
[4]; read-out: GI50
  GI50: 1960 nM
[4]; [29]
  CC50: 9.5 µM
[4]; read-out: TGI
  TGI: 43 µM
[4]; read-out: pGI50 (converted)
  GI50: 1950 nM
[4]; [30]
  CC50: 9.55 µM
[4]; read-out: pTGI (converted)
  TGI: 4.27 µM
[5]; read-out: GI50
  GI50: 1010 nM
[5]; [29]
  CC50: > 100 µM
[5]; read-out: TGI
  TGI: 77 µM
[5]; read-out: pGI50 (converted)
  GI50: 1000 nM
[5]; [30]
  CC50: > 100 µM
[5]; read-out: pTGI (converted)
  TGI: 7.76 µM
[6]
  growth at 100 µM: -52%
[7]
  pIC50: 5.76
[7]; read-out: GI50
  GI50: 1740 nM
[7]; [29]
  CC50: 9.59 µM
[7]; read-out: TGI
  TGI: 41 µM
[7]; read-out: pGI50 (converted)
  GI50: 1740 nM
[7]; [30]
  CC50: 9.77 µM
[7]; read-out: pTGI (converted)
  TGI: 4.07 µM
[8]
  growth at 0.01 µM: 105%
[9]
  pIC50: 5.72
[9]; read-out: GI50
  GI50: 1910 nM
[9]; [29]
  CC50: > 100 µM
[9]; read-out: TGI
  TGI: 65.1 µM
[9]; read-out: pGI50 (converted)
  GI50: 1910 nM
[9]; [30]
  CC50: > 100 µM
[9]; read-out: pTGI (converted)
  TGI: 6.46 µM
[10]
  growth at 0.1 µM: 99%
[11]
  growth at 0.01 µM: 106%
[12]
  growth at 1 µM: 76%
[13]
  growth at 0.01 µM: 108%
[14]
  growth at 0.01 µM: 59%
[15]
  growth at 1 µM: 89%
[16]
  growth at 100 µM: -69%
[17]
  growth at 0.1 µM: 85%
[18]; read-out: GI50
  GI50: 2020 nM
[18]; [29]
  CC50: > 100 µM
[18]; read-out: TGI
  TGI: 50.6 µM
[18]; read-out: pGI50 (converted)
  GI50: 2000 nM
[18]; [30]
  CC50: > 100 µM
[18]; read-out: pTGI (converted)
  TGI: 5.01 µM
[19]
  growth at 0.1 µM: 99%
[20]
  growth at 0.1 µM: 94%
[21]
  growth at 100 µM: -55%
[22]
  growth at 1 µM: 72%
[23]
  growth at 0.01 µM: 103%
[24]
  growth at 0.1 µM: 97%
[25]
  growth at 0.1 µM: 97%
[26]
  growth at 0.01 µM: 102%
[27]; read-out: GI50
  GI50: 2560 nM
[27]; read-out: LC50
  LC50: > 100 µM
[27]; read-out: TGI
  TGI: > 100 µM
[27]; read-out: pGI50 (converted)
  GI50: 2570 nM
[27]; read-out: pLC50 (converted)
  LC50: > 100 µM
[27]; read-out: pTGI (converted)
  TGI: > 100 µM
[28]
  growth at 1 µM: 59%
